Reference: BindingDB's records for doi:10.7270/Q2Q52N1X (Vanderbilt Screening Center for GPCRs, Ion Channels and …, 2009)

target: T1, Solute carrier family 12 member 5 (Homo sapiens, UniProt Q9H2X9); assay: concentration-response of KCC2 transport modulators – cell-based, HEK293 KCC2, FluoZin-2 fluorescence, dose response (AID 1736); conditions: not given
T1 sequence (Q9H2X9 whole entry): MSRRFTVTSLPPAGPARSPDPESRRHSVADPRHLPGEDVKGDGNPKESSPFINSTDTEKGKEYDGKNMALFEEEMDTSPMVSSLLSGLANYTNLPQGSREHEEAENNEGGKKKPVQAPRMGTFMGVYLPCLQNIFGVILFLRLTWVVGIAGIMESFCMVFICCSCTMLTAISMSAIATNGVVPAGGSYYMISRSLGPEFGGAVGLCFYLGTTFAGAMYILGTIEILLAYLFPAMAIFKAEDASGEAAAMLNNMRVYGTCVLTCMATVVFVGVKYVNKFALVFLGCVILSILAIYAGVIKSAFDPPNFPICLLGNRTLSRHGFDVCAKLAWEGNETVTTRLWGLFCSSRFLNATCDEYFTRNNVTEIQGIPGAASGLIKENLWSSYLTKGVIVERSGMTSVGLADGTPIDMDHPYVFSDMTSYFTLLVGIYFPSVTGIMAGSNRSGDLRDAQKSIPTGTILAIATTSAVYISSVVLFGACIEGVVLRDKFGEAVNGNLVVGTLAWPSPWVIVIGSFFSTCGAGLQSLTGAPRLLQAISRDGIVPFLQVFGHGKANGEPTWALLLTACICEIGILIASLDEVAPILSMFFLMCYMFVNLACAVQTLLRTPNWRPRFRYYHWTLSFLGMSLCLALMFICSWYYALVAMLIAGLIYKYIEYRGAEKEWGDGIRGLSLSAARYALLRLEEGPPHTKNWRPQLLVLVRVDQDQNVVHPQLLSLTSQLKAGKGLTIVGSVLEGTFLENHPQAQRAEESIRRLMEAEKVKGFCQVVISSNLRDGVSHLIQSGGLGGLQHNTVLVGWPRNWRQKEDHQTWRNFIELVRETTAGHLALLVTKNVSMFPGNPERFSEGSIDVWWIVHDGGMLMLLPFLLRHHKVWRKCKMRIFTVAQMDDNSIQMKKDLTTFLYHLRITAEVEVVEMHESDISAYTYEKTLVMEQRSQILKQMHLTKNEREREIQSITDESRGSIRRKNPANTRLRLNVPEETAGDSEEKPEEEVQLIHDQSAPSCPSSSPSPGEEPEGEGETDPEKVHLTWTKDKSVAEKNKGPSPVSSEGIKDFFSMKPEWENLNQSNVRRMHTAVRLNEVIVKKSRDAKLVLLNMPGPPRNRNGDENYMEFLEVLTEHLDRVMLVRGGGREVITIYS

EC50 [µM] | SMILES
1.13 | Cc1nonc1NC(=O)CSc1ccc(-c2ccccc2)nn1 [MLS000074514]
1.77 | N#Cc1nc(Cc2cccc3ccccc23)oc1N1CCOCC1 [5-(4-morpholinyl)-2-(1-naphthalenylmethyl)-4-oxazolecarbonitrile]
3.08 | CC1CCN(C(=O)CSc2ccc(-c3ccc(F)cc3)nn2)CC1 [2-[6-(4-Fluoro-phenyl)-pyridazin-3-ylsulfanyl]-1-(4-methyl-piperidin-1-yl)-ethanone]
109 | COc1ccccc1N1CCN(C(=S)NC(=O)/C=C/c2ccccc2)CC1 [(E)-N-[4-(2-Methoxy-phenyl)-piperazine-1-carbothioyl]-3-phenyl-acrylamide]
4.96 | O=C(O)c1cc([N+](=O)[O-])ccc1NCc1ccccc1 [2-(benzylamino)-5-nitro-benzoic acid]
25.6 | CCC(Sc1nc(C)cc(=O)[nH]1)C(=O)Nc1sc2c(c1C#N)CCCC2 (centres undefined) [MLS000112919]
41.9 | O=C(COC(=O)c1cc([N+](=O)[O-])ccc1NCCO)c1ccccc1 [2-(2-hydroxyethylamino)-5-nitro-benzoic acid phenacyl ester]
9.45 | O=C(CSc1ncccc1-c1nc2ccccc2[nH]1)N1CCN(c2ccccc2F)CC1 [MLS000033700]
14.8 | Cc1ccccc1OCC(=O)NNC(=O)CCN1C(=O)c2ccccc2C1=O [3-(1,3-dioxo-2-isoindolyl)-N'-[2-(2-methylphenoxy)-1-oxoethyl]propanehydrazide]
5.9 | O=C(OCC(=O)N1CCc2ccccc2C1)c1ccc(N2CCOCC2)c([N+](=O)[O-])c1 [4-(4-morpholinyl)-3-nitrobenzoic acid [2-(3,4-dihydro-1H-isoquinolin-2-yl)-2-oxoethyl] ester]
9.37 | O=S(=O)(Nc1nc2ccccc2nc1N1CCN(c2ccccn2)CC1)c1ccc(Cl)cc1 [4-chloranyl-N-[3-(4-pyridin-2-ylpiperazin-1-yl)quinoxalin-2-yl]benzenesulfonamide]
12.4 | O=C(C=Cc1ccccc1)CC(=O)c1ccccc1O [MLS000627068]
5.03 | Cc1cccc(-c2nc(C[S+]([O-])CC(=O)N3CCc4ccccc4C3)c(C)o2)c1 (centres undefined) [1-(3,4-dihydro-1H-isoquinolin-2-yl)-2-[[5-methyl-2-(3-methylphenyl)-1,3-oxazol-4-yl]methylsulfinyl]ethanone]
145 | CC(C)NC(=S)NNC1=c2cc(C(C)C)ccc2=NC1=O [SMR000242097]
12.4 | Cn1c(CSc2nc3ccccc3s2)nc2ccccc21 [2-(1-Methyl-1H-benzoimidazol-2-ylmethylsulfanyl)-benzothiazole]
6.01 | CCc1ccc(Nc2nnc(SCC(=O)Nc3sccc3C(N)=O)s2)cc1 [2-[2-[[5-[(4-ethylphenyl)amino]-1,3,4-thiadiazol-2-yl]sulfanyl]ethanoylamino]thiophene-3-carboxamide]
2060 | O=C(NCc1cccnc1)c1ccc(COc2ccc(Cl)cc2Cl)o1 [5-[(2,4-dichlorophenoxy)methyl]-N-(3-pyridinylmethyl)-2-furancarboxamide]
10.5 | O=C(CSc1ccc(-c2ccccc2)nn1)N1CCCc2ccccc21 [1-(3,4-dihydro-2H-quinolin-1-yl)-2-(6-phenylpyridazin-3-yl)sulfanyl-ethanone]
8.25 | O=C(CCSCCc1ccccn1)Nc1ccc(Cc2ccncc2)cc1 [3-(2-pyridin-2-ylethylsulfanyl)-N-[4-(pyridin-4-ylmethyl)phenyl]propanamide]

EC50 [µM] | SMILES
8.15 | COc1cc(OC)c(C2=NOC(C(=O)N3CCc4ccccc4C3)C2)cc1Cl (centres undefined) [2-{[3-(5-chloro-2,4-dimethoxyphenyl)-4,5-dihydro-5-isoxazolyl]carbonyl}-1,2,3,4-tetrahydroisoquinoline]
2.67 | CC(=NNC(=O)c1ccc(Br)cc1)c1ccccc1 [MLS000558629]
29.4 | O=C(O)CC/C(=C\c1ccc(N2CCCC2)c([N+](=O)[O-])c1)c1nc2ccccc2s1 [(E)-4-(1,3-benzothiazol-2-yl)-5-(3-nitro-4-pyrrolidin-1-yl-phenyl)pent-4-enoic acid]
1.94 | CC1CCN(C(=O)c2ccc(SCc3ccccc3F)c([N+](=O)[O-])c2)CC1 [1-{4-[(2-fluorobenzyl)thio]-3-nitrobenzoyl}-4-methylpiperidine]
2410 | CCC(Cc1ccccc1)NC(=O)CN(C)S(=O)(=O)c1ccc2c(c1)c(=O)n(C)c(=O)n2C (centres undefined) [2-[(1,3-dimethyl-2,4-dioxo-6-quinazolinyl)sulfonyl-methylamino]-N-(1-phenylbutan-2-yl)acetamide]
0.953 | CN(CC(=O)N1CCN(Cc2ccccc2)CC1)S(=O)(=O)c1cccc2nsnc12 [MLS000674627]
14.4 | COc1ccc(S(=O)(=O)N2CCC(C(=O)N3CCc4ccccc4C3)CC2)cc1C [2-({1-[(4-methoxy-3-methylphenyl)sulfonyl]-4-piperidinyl}carbonyl)-1,2,3,4-tetrahydroisoquinoline]
6.07 | O=C(Cn1c(-c2ccc(Cl)cc2)noc1=O)N1CCN(c2ccccc2F)CC1 [3-(4-Chloro-phenyl)-4-{2-[4-(2-fluoro-phenyl)-piperazin-1-yl]-2-oxo-ethyl}-4H-[1,2,4]oxadiazol-5-one]
878 | Cc1nc(SCc2ccc(F)cc2)c([N+](=O)[O-])[nH]1 [SMR000271028]
2.68 | O=C(CC(Cc1ccccc1)c1ccco1)NC1CCCCC1 (centres undefined) [MLS000556612]
17.7 | O=C(CSc1nnc(-c2ccc(F)cc2)o1)N1CCN(C(=O)c2ccco2)CC1 [2-[5-(4-Fluoro-phenyl)-[1,3,4]oxadiazol-2-ylsulfanyl]-1-[4-(furan-2-carbonyl)-piperazin-1-yl]-ethanone]
10.6 | O=C(C1CCN(c2nnc(-n3cccc3)s2)CC1)N1CCc2ccccc2C1 [3,4-dihydro-1H-isoquinolin-2-yl-[1-(5-pyrrol-1-yl-1,3,4-thiadiazol-2-yl)-4-piperidyl]methanone]
8190 | CC1CCCCN1C(=O)CSc1ccc(-c2ccc(F)cc2)nn1 (centres undefined) [2-[6-(4-Fluoro-phenyl)-pyridazin-3-ylsulfanyl]-1-(2-methyl-piperidin-1-yl)-ethanone]
7.52 | O=C(c1ccc(-c2ccccc2)cc1)C1CCCN(Cc2ccncc2)C1 (centres undefined) [(4-phenylphenyl)-[1-(4-pyridylmethyl)-3-piperidyl]methanone]
155 | CCOC(=O)c1sc(Nc2nc3c(OC)cccc3s2)nc1C [SMR000027213]
0.618 | NC(=S)NN=C1C(=O)N(Cc2ccccc2)c2ccccc21 [1-[(Z)-[2-oxidanylidene-1-(phenylmethyl)indol-3-ylidene]amino]thiourea]
4.09 | Cc1ccc2c(c1)nnn2C1CCN(S(=O)(=O)c2cccc(S(=O)(=O)N(C)C)c2)CC1 [MLS000033642]
2.43 | CS(=O)(=O)N(CC(=O)N1CCN(c2ccccc2)CC1)c1cccc(Br)c1 [MLS000110474]

same assay, conditions: inactive by the depositor's call

EC50 [µM] | SMILES
13.2 | COc1ccc(C(c2nnnn2Cc2cccs2)N2CCN(c3ccccc3F)CC2)cc1 (centres undefined) [1-(2-Fluoro-phenyl)-4-[(4-methoxy-phenyl)-(1-thiophen-2-ylmethyl-1H-tetrazol-5-yl)-methyl]-piperazine]
64 | CN1C(C(=O)NCc2ccccc2)CC2Cn3c(nc4cc(Cl)c(Cl)cc43)C21 (centres undefined) [MLS000877509]
19.2 | C=CCNC(=O)NC(=O)CSc1nc2cc([N+](=O)[O-])ccc2n1-c1cccc(C(F)(F)F)c1 [2-[5-nitro-1-[3-(trifluoromethyl)phenyl]benzimidazol-2-yl]sulfanyl-N-(prop-2-enylcarbamoyl)acetamide]
67 | CC(=O)Nc1ccc(S(=O)(=O)N2CCN(C(C)CCc3ccccc3)CC2)cc1 (centres undefined) [MLS000110551]
39.6 | O=C(Cn1c(-c2ccccc2)noc1=O)N1CCC(Cc2ccccc2)CC1 [4-[2-(4-benzylpiperidin-1-yl)-2-oxoethyl]-3-phenyl-1,2,4-oxadiazol-5-one]
24 | O=C(Cn1nnc(-c2ccccc2-n2cnnn2)n1)NCc1ccccc1 [MLS000073516]
101 | O=C(Nc1ccc(Cc2ccncc2)cc1)c1ccc(N2CCOCC2)c([N+](=O)[O-])c1 [4-(4-morpholinyl)-3-nitro-N-[4-(4-pyridinylmethyl)phenyl]benzamide]
